# Data taken from patent US5919761A, “Peptides for heparin and low molecular weight heparin anticoagulation reversal” (The Board of Regents of the University of Michigan, priority 1995, dated 1999).
# Where “and” joins values, the source holds several entries; their conditions need not be identical. Equal values may be shown once. Peptide text beside a SMILES is read from it.
# Key:
# LMWH (LHN-1, Logiparin) = test: Percent reversal of LMWH anticoagulation, agents administered at different rates, canine study; type: in vivo, dogs
# Experimental: Anticoagulation reversal was assessed by a number of standard coagulation tests performed upon samples of venous blood in the manner described hereinabove. Measurements were made 3 minutes prior to heparin reversal (baseline) and 3 minutes, 10 minutes, and 30 minutes post-administration of the heparin reversal agent.
# [1] = Platelet count, leukocyte count and bleeding time after LMWH reversal at different rates, canine study; type: in vivo, dogs
# Experimental: (§1) The anticoagulation-reversing agents were administered rapidly over 10 seconds to maximize hemodynamic effects or more slowly over a 3 minute interval. Changes in LMWH anticoagulation occurring from metabolism alone were determined in a separate group of dogs not given any reversal agent.
# standard heparin = test: Percent reversal of standard heparin anticoagulation by peptide [+18BE] administered at different rates, dogs; type: in vivo
# [2] = test system: standard, unfractionated heparin; test: Factor Xa and IIa reversal after standard heparin, cell adhesion ligand analogs, canine study; type: in vivo; settings: dogs, 3 min post administration
# Experimental: Anticoagulation reversal was assessed by a number of standard coagulation tests performed upon samples of venous blood in the manner described hereinabove. Measurements were made 3 minutes prior to heparin reversal (baseline) and 3 minutes, 10 minutes, and 30 minutes post-administration of the heparin reversal agent. […] Referring to FIGS. 4a through 4d, compound [+18RGD] performs as well, or better, than n-protamine in the standard coagulation tests performed in these studies.
# [3] = Percent change in platelet count after standard heparin reversal, cell adhesion ligand analogs, canine study; type: in vivo; settings: dogs, agent over 10 seconds
# Experimental: In addition to hemodynamic changes, Table 15 lists the percent change in platelet count following administration of n-protamine and the selected variants, as well as the factor Xa and factor IIa reversal, as a percent change at 3 minutes post administration of the compound.
# LMWH (Enoxaparin) = test: Factor Xa and IIa reversal after LMWH Enoxaparin, canine study; type: in vivo; settings: dogs, 3 min
# Experimental: Similar studies were conducted to assess the ability of the protamine-like peptide analogs described in this section to reverse the anticoagulation effects of the LMWH, Enoxaparin. FIG. 5a through FIG. 5d are graphical representations of LMWH anticoagulation activities achieved by n-protamine (Protamine [+21]), and compounds [+18BE], [+18KDEL], and [+18RGD] plotted as a percent of reversal against time in minutes. […] Referring to FIG. 5c, compound [+18RGD] dramatically outperforms n-protamine in reversing the heparin antifactor Xa activity of Enoxaparin.
# [4] = Percent change in platelet count after Enoxaparin reversal, canine study; type: in vivo; settings: dogs, agent over 10 seconds
# Experimental: (§2) Seven female dogs (mean weight 15-20 kg) received intravenous standard, unfractionated heparin (150 IU/kg IV) or LMWH (Enoxaparin, Rhone-Poulac, France; 100 IU/kg factor Xa activity) followed by reversal with commercial salmine protamine (n-protamine purchased from Eli Lilly, Indianapolis, Ind., 1.5 mg/kg (100 IU/mg) IV) or an anticoagulation-reversing agent which is a protamine-like peptide variant identified hereinbelow. In these studies, the anticoagulation-reversing agents were administered over a 10 second interval to maximize the hemodynamic effects.
# [5] = Maximum hemodynamic changes and total toxicity score after Enoxaparin reversal, canine study; settings: dogs, agent over 10 seconds
# Experimental: as §2
# [6] = Hemodynamic studies and total toxicity score after LMWH reversal at different rates, canine study; settings: dogs, Logiparin
# Experimental: as §1
# Hemodynamic studies were conducted by measuring mean arterial pressure (MAP) in mm Mercury, maximum percent changes in cardiac output (CO) and systemic oxygen consumption (VO2), and heart rate (HR) in beats per minute. Measurements and calculations were made at baseline, before LMWH administration, 3 minutes before reversal, every 30 seconds for 5 minutes after reversal, and at 10, 20, and 30 minutes after reversal.
# (§3) TTS were developed that reflected maximum declines in each of four parameters (MAP, CO, VO2 and HR) over the first 5 minutes after reversal in the same manner as described hereinabove.
# [7] = Hemodynamic studies and total toxicity score after standard heparin reversal at different rates, dogs
# Experimental: Hemodynamic studies were conducted by measuring mean arterial pressure (MAP) in mm Mercury, maximum percent changes in cardiac output (CO) and systemic oxygen consumption (VO2), and heart rate (HR) in beats per minute. Measurements and calculations were made at baseline, before LMWH administration, 3 minutes before reversal, every 30 seconds for 5 minutes after reversal.
# as §3
# [8] = Maximum hemodynamic changes and total toxicity score after standard heparin reversal, cell adhesion ligand analogs, canine study; settings: dogs, agent over 10 seconds
# Experimental: In these studies, the anticoagulation-reversing agents were administered over a 10 second interval to maximize the hemodynamic effects.
# Hemodynamic studies were conducted by measuring mean blood pressure (Mean BP) in mm Mercury, maximum percent changes in cardiac output (CO) and systemic oxygen consumption (VO2), and heart rate (HR) in beats per minute. Measurements and calculations were made at baseline, before administration of standard, unfractionated heparin, 3 minutes before reversal, every 30 seconds for 5 minutes after reversal.
# Total toxicity scores (TTS) were developed in accordance with the method described hereinabove that reflected maximum declines in each of four parameters (MAP, CO, VO2 and HR) over the first 5 minutes after reversal.
# [9] = administered over 10 sec, 3 min
# [10] = administered over 10 sec, 10 min
# [11] = administered over 10 sec, 30 min
# [12] = administered over 3 min, 10 min
# [13] = administered over 3 min, 30 min
# [14] = dogs, Logiparin, administered over 10 sec
# [15] = dogs, Logiparin, administered over 3 min
structure (smiles),measurement,setting,value
"CC(=O)N[C@@H](CCC(=O)O)C(=O)N[C@@H](C)C(=O)N[C@@H](C)C(=O)N[C@@H](CCCCN)C(=O)N[C@@H](CCCCN)C(=O)N[C@@H](C)C(=O)N[C@@H](C)C(=O)N[C@@H](CCCCN)C(=O)N[C@@H](CCCCN)C(=O)N[C@@H](C)C(=O)N[C@@H](CCCCN)C(=O)N[C@@H](CCCCN)C(=O)N[C@@H](C)C(=O)N[C@@H](C)C(=O)N[C@@H](CCCCN)C(=O)N[C@@H](CCCCN)C(=O)N[C@@H](C)C(=O)N[C@@H](CCCCN)C(=O)N[C@@H](CCCCN)C(=O)N[C@@H](C)C(=O)N[C@@H](C)C(=O)N[C@@H](CCCCN)C(=O)N[C@@H](CCCCN)C(=O)N[C@@H](C)C(=O)N[C@@H](CCCCN)C(=O)N[C@@H](CCCCN)C(=O)N[C@@H](C)C(=O)N[C@@H](C)C(=O)N[C@@H](CCCCN)C(=O)N[C@@H](CCCCN)C(=O)N[C@@H](C)C(=O)N[C@@H](CCCCN)C(=O)N[C@@H](CCCCN)C(N)=O [[+18BE], acetyl-EA2 (K2 A2 K2 A)4 K2 amide] (Ac-EAAKKAAKKAKKAAKKAKKAAKKAKKAAKKAKK-NH2)","Percent reversal of LMWH anticoagulation, FNa","LMWH (LHN-1, Logiparin); [9]",99%
same,"Percent reversal of LMWH anticoagulation, FXa","LMWH (LHN-1, Logiparin); [9]",73%
same,"Percent reversal of LMWH anticoagulation, TCT","LMWH (LHN-1, Logiparin); [9]",100%
same,"Percent reversal of LMWH anticoagulation, ACT","LMWH (LHN-1, Logiparin); [10]",78%
same,"Percent reversal of LMWH anticoagulation, FNa","LMWH (LHN-1, Logiparin); [10]",83%
same,"Percent reversal of LMWH anticoagulation, FXa","LMWH (LHN-1, Logiparin); [10]",51%
same,"Percent reversal of LMWH anticoagulation, TCT","LMWH (LHN-1, Logiparin); [10]",95%
same,"Percent reversal of LMWH anticoagulation, ACT","LMWH (LHN-1, Logiparin); [11]",81%
same,"Percent reversal of LMWH anticoagulation, FNa","LMWH (LHN-1, Logiparin); [11]",79%
same,"Percent reversal of LMWH anticoagulation, FXa","LMWH (LHN-1, Logiparin); [11]",59%
same,"Percent reversal of LMWH anticoagulation, TCT","LMWH (LHN-1, Logiparin); [11]",95%
same,"Percent reversal of LMWH anticoagulation, FNa","LMWH (LHN-1, Logiparin); administered over 3 min, 3 min",94%
same,"Percent reversal of LMWH anticoagulation, FXa","LMWH (LHN-1, Logiparin); administered over 3 min, 3 min",91%
same,"Percent reversal of LMWH anticoagulation, TCT","LMWH (LHN-1, Logiparin); administered over 3 min, 3 min",100%
same,"Percent reversal of LMWH anticoagulation, ACT","LMWH (LHN-1, Logiparin); [12]",95%
same,"Percent reversal of LMWH anticoagulation, FNa","LMWH (LHN-1, Logiparin); [12]",99%
same,"Percent reversal of LMWH anticoagulation, FXa","LMWH (LHN-1, Logiparin); [12]",68%
same,"Percent reversal of LMWH anticoagulation, TCT","LMWH (LHN-1, Logiparin); [12]",100%
same,"Percent reversal of LMWH anticoagulation, ACT","LMWH (LHN-1, Logiparin); [13]",97%
same,"Percent reversal of LMWH anticoagulation, FNa","LMWH (LHN-1, Logiparin); [13]",84%
same,"Percent reversal of LMWH anticoagulation, FXa","LMWH (LHN-1, Logiparin); [13]",60%
same,"Percent reversal of LMWH anticoagulation, TCT","LMWH (LHN-1, Logiparin); [13]",99%
same,"Percent reversal of LMWH anticoagulation, ACT","LMWH (LHN-1, Logiparin); dogs, Logiparin, agent administered over 10 sec, 3 min post-administration",65%
same,"Percent reversal of LMWH anticoagulation, ACT","LMWH (LHN-1, Logiparin); dogs, Logiparin, agent administered over 3 min, 3 min post-administration",89%
same,Maximal decline in leukocyte count,[1]; [14],-1%
same,Maximal thrombocytopenia,[1]; [14],-44%
same,Maximal decline in leukocyte count,[1]; [15],-7%
same,Maximal thrombocytopenia,[1]; [15],-49%
same,thrombocytopenia (platelet count change),"[1]; dogs, Logiparin, by 10 minutes, administered over a 3 minute interval",-8%
same,platelet count rebound,"[1]; dogs, Logiparin, by 30 minutes, administered over a 3 minute interval",+35%
same,bleeding time,"[1]; selected animals, given over a 3 minute interval",≤ 8 min
same,"Percent reversal of standard heparin anticoagulation, FNa",standard heparin; [9],100%
same,"Percent reversal of standard heparin anticoagulation, FXa",standard heparin; [9],99%
same,"Percent reversal of standard heparin anticoagulation, TCT",standard heparin; [9],100%
same,"Percent reversal of standard heparin anticoagulation, ACT",standard heparin; [10],98%
same,"Percent reversal of standard heparin anticoagulation, FNa",standard heparin; [10],99%
same,"Percent reversal of standard heparin anticoagulation, FXa",standard heparin; [10],95%
same,"Percent reversal of standard heparin anticoagulation, TCT",standard heparin; [10],98%
same,"Percent reversal of standard heparin anticoagulation, ACT",standard heparin; [11],96%
same,"Percent reversal of standard heparin anticoagulation, FNa",standard heparin; [11],100%
same,"Percent reversal of standard heparin anticoagulation, FXa",standard heparin; [11],97%
same,"Percent reversal of standard heparin anticoagulation, TCT",standard heparin; [11],98%
same,"Percent reversal of standard heparin anticoagulation, FNa","standard heparin; administered over 3 min, 3 min",99%
same,"Percent reversal of standard heparin anticoagulation, FXa","standard heparin; administered over 3 min, 3 min",99%
same,"Percent reversal of standard heparin anticoagulation, TCT","standard heparin; administered over 3 min, 3 min",100%
same,"Percent reversal of standard heparin anticoagulation, ACT",standard heparin; [12],98%
same,"Percent reversal of standard heparin anticoagulation, FNa",standard heparin; [12],98%
same,"Percent reversal of standard heparin anticoagulation, FXa",standard heparin; [12],97%
same,"Percent reversal of standard heparin anticoagulation, TCT",standard heparin; [12],100%
same,"Percent reversal of standard heparin anticoagulation, ACT",standard heparin; [13],98%
same,"Percent reversal of standard heparin anticoagulation, FNa",standard heparin; [13],99%
same,"Percent reversal of standard heparin anticoagulation, FXa",standard heparin; [13],96%
same,"Percent reversal of standard heparin anticoagulation, TCT",standard heparin; [13],100%
same,"Percent reversal of standard heparin anticoagulation, ACT","standard heparin; dogs (n=7), administered over 10 sec, 3 min post-administration",95%
same,"Percent reversal of standard heparin anticoagulation, ACT","standard heparin; dogs (n=7), administered over 3 min, 3 min post-administration",98%
same,IIa Reversal,[2],100%
same,Xa Reversal,[2],99%
same,Platelet (percent change in platelet count),[3],-46%
same,IIa Reversal,LMWH (Enoxaparin),88%
same,Xa Reversal,LMWH (Enoxaparin),40%
same,Platelet (percent change in platelet count),[4],-35%
same,"Maximum hemodynamic change, Mean BP","[5]; Enoxaparin 100 IU/kg, 5 minutes",-1 mm Mercury
same,Total Toxicity Score (TTS),[5]; Enoxaparin,-3.89 and -3.89 ± 2.37
same,"Maximum hemodynamic change, CO","[5]; Enoxaparin, 5 minutes",-5%
same,"Maximum hemodynamic change, HR","[5]; Enoxaparin, 5 minutes",-4 beats/min
same,"Maximum hemodynamic change, VO2","[5]; Enoxaparin, 5 minutes",-6%
same,Total Toxicity Score,[6]; administered over 10 sec,-2.3 ± 3.6
same,ΔCO,[6]; administered over 10 sec,-11%
same,ΔHr,[6]; administered over 10 sec,-13 beats per minute
same,ΔMAP,[6]; administered over 10 sec,-8 mm Mercury
same,ΔVO2,[6]; administered over 10 sec,-12%
same,Total Toxicity Score,[6]; administered over 3 min,-2.2 ± 1.7
same,ΔCO,[6]; administered over 3 min,-7%
same,ΔHr,[6]; administered over 3 min,-5 beats per minute
same,ΔMAP,[6]; administered over 3 min,0 mm Mercury
same,ΔVO2,[6]; administered over 3 min,-10%
same,Total Toxicity Score,[7]; administered over 10 sec,-2.14 ± 0.40
same,ΔCO,[7]; administered over 10 sec,-9%
same,ΔHR,[7]; administered over 10 sec,-8 beats per minute
same,ΔMAP,[7]; administered over 10 sec,-1 mm Mercury
same,ΔVO2,[7]; administered over 10 sec,-9%
same,Total Toxicity Score,[7]; administered over 3 min,-1.96 ± 0.55
same,ΔCO,[7]; administered over 3 min,-17%
same,ΔHR,[7]; administered over 3 min,-8 beats per minute
same,ΔMAP,[7]; administered over 3 min,1 mm Mercury
same,ΔVO2,[7]; administered over 3 min,-10%
same,"Maximum hemodynamic change, Mean BP","[8]; standard heparin 150 IU/kg IV, 5 minutes",-1 mm Mercury
same,"Maximum hemodynamic change, CO","[8]; standard heparin, 5 minutes",-9%
same,"Maximum hemodynamic change, HR","[8]; standard heparin, 5 minutes",-8 beats/min
same,"Maximum hemodynamic change, VO2","[8]; standard heparin, 5 minutes",-9%
same,Total Toxicity Score,[8]; standard unfractionated heparin,-2.41 ± 0.47
